Laboratory results taken from patent US5473057A, “Eleutherobin and analogs thereof” (The Regents of the University of California, priority 1994, dated 1995).
Entries after “also recorded” stand apart in the source; their conditions may differ. Read-outs that look alike come from different tables or passages of the source.

Tests used:
[1] = system: HCT116/VM46 human colon carcinoma subline, which overexpresses P-glycoprotein; assay: In vitro cytotoxicity in multidrug resistant subline HCT116/VM46 (XTT assay); format: cell-based; conditions: for fold resistance relative to corresponding parent cell line: HCT116/VM46 relative to HCT116, 4320 min; for IC50: Homo sapiens, HCT-116/VM46, HCT116/VM46, 72 hour exposure, XTT assay
Procedure: (§1) Eleutherobin and the above described analogs are useful as cytotoxic agents. The compounds are used in the same manner as other known cytotoxic agents. They may be used alone or in combination with suitable pharmaceutical carriers and other bioactive materials. They are used both in vitro and in vivo to kill a wide variety of cell types. […] For example, in vitro toxicity of eleutherobin was tested in the HCT116 human colon carcinoma cell line and a multidrug resistant subline, HCT116/VM46, which overexpresses P-glycoprotein and is over 100-fold resistant to taxol. […] The cytotoxicity of eleutherobin was also tested in a human ovarian carcinoma cell line A2780. Eleutherobin was also found to be cytotoxic with respect to the A2780 cell line.
(§2) ^1 Cytotoxicity was determined after 72 hour exposure by XTT assay.
^2 Value in parenthesis is fold resistance relative to corresponding

[2] = system: HCT116 human colon carcinoma cell line; assay: In vitro cytotoxicity in HCT116 (XTT assay); format: cell-based; conditions: for IC50: Homo sapiens
Procedure: as §1, §2

[3] = system: cancer cells; assay: Cytotoxicity, general statement; format: cell-based; conditions: in words
[4] = system: human ovarian carcinoma cell line A2780; assay: In vitro cytotoxicity in A2780 (XTT assay); format: cell-based; conditions: for IC50: Homo sapiens
Procedure: as §1, §2

[5] = in words, background art; cited from earlier work

Structure (SMILES): CO[C@]12C=C[C@](C)(O1)[C@@H](OC(=O)/C=C/c1cn(C)cn1)C[C@H]1C(C)=CC[C@H](C(C)C)[C@H]1/C=C\2COC1OCC(O)C(O)C1OC(C)=O (some centres unmarked) [Eleutherobin]
- fold resistance relative to corresponding parent cell line [1]: 52 fold
- IC50 [1]: 554 nM
- IC50 ([2]; HCT-116, 72 h): 10.7 nM
- cytotoxicity in the HCT116 cell line compared with taxol ([2]; in words, HCT116): nearly as cytotoxic as taxol
- cytotoxicity [3]: effective cytotoxin; also recorded: cytotoxic with respect to cancer cells
- IC50 ([4]; A2780, 72 h): 13.7 nM
- cytotoxicity with respect to the A2780 cell line ([4]; in words, A2780): cytotoxic

Structure (SMILES): CC(=O)O[C@H]1C(=O)[C@@]2(C)[C@H]([C@H](OC(=O)c3ccccc3)[C@]3(O)C[C@H](OC(=O)[C@H](O)[C@@H](NC(=O)c4ccccc4)c4ccccc4)C(C)=C1C3(C)C)[C@]1(OC(C)=O)CO[C@@H]1C[C@@H]2O [paclitaxel (taxol), paclitaxel]
- fold resistance relative to corresponding parent cell line [1]: 117 fold
- fold resistance relative to corresponding parent cell line ([1]; listed as taxol): over 100 fold
- IC50 [1]: 5.37 nM
- IC50 ([2]; HCT-116, HCT116, 72 hour exposure, XTT assay, read-out: IC50): 4.6 nM
- IC50 ([4]; A2780, 72 hour exposure, XTT assay, read-out: IC50): 6.7 nM

Structure (SMILES): CC1=CC(=O)[C@H](C(C)C)[C@H]2/C=C(/C)[C@@]3(O)C=C[C@](C)(O3)[C@@H](OC(=O)Cc3ccccc3)C[C@@H]12 [Valdivone B]
- anti-inflammatory activity [5]: anti-inflammatory activity

Structure (SMILES): CC(C)=CC(=O)O[C@H]1C[C@H]2C(C)=CC(=O)[C@H](C(C)C)[C@H]2/C=C(/C)[C@@]2(O)C=C[C@]1(C)O2 [Valdivone A]
- anti-inflammatory activity [5]: anti-inflammatory activity
